Test results: ChEMBL document CHEMBL1201862, “PubChem BioAssay data set” (2004)
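Following 48 hours of exposure in 96-well plates, responses at five concentrations were used to interpolate endpoints linearly. Abbreviation: GI50, concentration required for 50% inhibition of growth.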 Calls of active or inactive are those of the source. Cut-off read from the data, not from the text of the source: active = GI50 up to about 1.1 µM and inactive = higher.

Tests used:
Experiment in all cases: inhibition of tumour cell growth, NCI panel, 48 h
OVCAR-5 = system: OVCAR-5
SK-MEL-5 = system: SK-MEL-5
HT-29 = system: HT-29
CCRF-CEM = system: CCRF-CEM
NCI-H23 = system: NCI-H23
NCI/ADR-RES = system: NCI/ADR-RES
MOLT-4 = system: MOLT-4
CAKI-1 = system: CAKI-1
UACC-62 = system: UACC-62
COLO 205 = system: COLO 205
A549 = system: A549
OVCAR-3 = system: OVCAR-3
SK-MEL-28 = system: SK-MEL-28
U-251 = system: U-251
MDA-MB-435 = system: MDA-MB-435
RPMI-8226 = system: RPMI-8226
K562 = system: K562
HCC 2998 = system: HCC 2998
SK-OV-3 = system: SK-OV-3
SF-268 = system: SF-268
LOX IMVI = system: LOX IMVI
SF-295 = system: SF-295
KM12 = system: KM12
NCI-H226 = system: NCI-H226
HCT-116 = system: HCT-116
SK-MEL-2 = system: SK-MEL-2
OVCAR-8 = system: OVCAR-8
SN12C = system: SN12C
Hs-578T = system: Hs-578T
OVCAR-4 = system: OVCAR-4
IGROV-1 = system: IGROV-1
MDA-N = system: MDA-N
UACC-257 = system: UACC-257
MCF7 = system: MCF7
T47D = system: T47D
SF-539 = system: SF-539
HCT-15 = system: HCT-15
EKVX = system: EKVX
PC-3 = system: PC-3
SW-620 = system: SW-620
HOP-62 = system: HOP-62
ACHN = system: ACHN
786-0 = system: 786-0
HL-60 = system: HL-60
SR = system: SR
M14 = system: M14
SNB-19 = system: SNB-19
NCI-H460 = system: NCI-H460
SNB-75 = system: SNB-75
DU-145 = system: DU-145
UO-31 = system: UO-31
Malme-3M = system: Malme-3M
TK-10 = system: TK-10
BT-549 = system: BT-549
NCI-H522 = system: NCI-H522
RXF 393 = system: RXF 393
A498 = system: A498
MDA-MB-231 = system: MDA-MB-231
HOP-92 = system: HOP-92

## Cc1ncc([N+](=O)[O-])n1CCNC(=O)CCn1ccnc1[N+](=O)[O-]
OVCAR-5
  GI50: > 100 µM (inactive)
SK-MEL-5
  GI50: > 100 µM (inactive)
HT-29
  GI50: > 100 µM (inactive)
CCRF-CEM
  GI50: > 100 µM (inactive)
NCI-H23
  GI50: > 100 µM (inactive)
NCI/ADR-RES
  GI50: > 100 µM (inactive)
MOLT-4
  GI50: > 100 µM (inactive)
CAKI-1
  GI50: > 100 µM (inactive)
UACC-62
  GI50: > 100 µM (inactive)
COLO 205
  GI50: > 100 µM (inactive)
A549
  GI50: > 100 µM (inactive)
OVCAR-3
  GI50: > 100 µM (inactive)
SK-MEL-28
  GI50: > 100 µM (inactive)
U-251
  GI50: > 100 µM (inactive)
MDA-MB-435
  GI50: > 100 µM (inactive)
RPMI-8226
  GI50: > 100 µM (inactive)
K562
  GI50: > 100 µM (inactive)
HCC 2998
  GI50: > 100 µM (inactive)
SK-OV-3
  GI50: > 100 µM (inactive)
SF-268
  GI50: > 100 µM (inactive)
LOX IMVI
  GI50: > 100 µM (inactive)
SF-295
  GI50: > 100 µM (inactive)
KM12
  GI50: > 100 µM (inactive)
NCI-H226
  GI50: > 100 µM (inactive)
HCT-116
  GI50: > 100 µM (inactive)
SK-MEL-2
  GI50: > 100 µM (inactive)
OVCAR-8
  GI50: > 100 µM (inactive)
SN12C
  GI50: > 100 µM (inactive)
Hs-578T
  GI50: 66.8 µM (inactive)
OVCAR-4
  GI50: > 100 µM (inactive)
IGROV-1
  GI50: > 100 µM (inactive)
MDA-N
  GI50: > 100 µM (inactive)
UACC-257
  GI50: > 100 µM (inactive)
MCF7
  GI50: > 100 µM (inactive)
T47D
  GI50: > 100 µM (inactive)
SF-539
  GI50: > 100 µM (inactive)
HCT-15
  GI50: > 100 µM
EKVX
  GI50: > 100 µM (inactive)
PC-3
  GI50: > 100 µM (inactive)
SW-620
  GI50: > 100 µM (inactive)
HOP-62
  GI50: > 100 µM (inactive)
ACHN
  GI50: > 100 µM (inactive)
786-0
  GI50: > 100 µM (inactive)
HL-60
  GI50: > 100 µM (inactive)
SR
  GI50: > 100 µM (inactive)
M14
  GI50: > 100 µM (inactive)
SNB-19
  GI50: > 100 µM (inactive)
NCI-H460
  GI50: > 100 µM (inactive)
SNB-75
  GI50: > 100 µM (inactive)
DU-145
  GI50: > 100 µM (inactive)
UO-31
  GI50: > 100 µM (inactive)
Malme-3M
  GI50: > 100 µM (inactive)
TK-10
  GI50: > 100 µM (inactive)
BT-549
  GI50: > 100 µM (inactive)
NCI-H522
  GI50: > 100 µM (inactive)

## CC(=O)c1c(N=[N+]=[N-])c2cccc3c2n(c1=O)CCC3
OVCAR-5
  GI50: 15.2 µM (inactive)
SK-MEL-5
  GI50: 14.7 µM (inactive)
HT-29
  GI50: 16.4 µM (inactive)
RXF 393
  GI50: 20.5 µM (inactive)
CCRF-CEM
  GI50: 19.1 µM (inactive)
NCI-H23
  GI50: 20.8 µM (inactive)
NCI/ADR-RES
  GI50: 19.2 µM (inactive)
MOLT-4
  GI50: 23.4 µM (inactive)
CAKI-1
  GI50: 28.3 µM (inactive)
UACC-62
  GI50: 16.5 µM (inactive)
COLO 205
  GI50: 21.4 µM (inactive)
A549
  GI50: 29 µM (inactive)
OVCAR-3
  GI50: 4.21 µM (inactive)
U-251
  GI50: 17.3 µM (inactive)
MDA-MB-435
  GI50: 19.1 µM (inactive)
RPMI-8226
  GI50: 25.9 µM (inactive)
K562
  GI50: 21.8 µM (inactive)
HCC 2998
  GI50: 16.9 µM (inactive)
SK-OV-3
  GI50: 46.7 µM (inactive)
SF-268
  GI50: 18.6 µM (inactive)
LOX IMVI
  GI50: 15.1 µM (inactive)
SF-295
  GI50: 24.7 µM (inactive)
KM12
  GI50: 14.6 µM (inactive)
NCI-H226
  GI50: 22.9 µM (inactive)
HCT-116
  GI50: 15.6 µM (inactive)
SK-MEL-2
  GI50: 21.7 µM (inactive)
OVCAR-8
  GI50: 0.957 µM (active)
SN12C
  GI50: 22.1 µM (inactive)
Hs-578T
  GI50: 22.9 µM (inactive)
OVCAR-4
  GI50: 21 µM (inactive)
IGROV-1
  GI50: 20.1 µM (inactive)
A498
  GI50: 21.3 µM (inactive)
MDA-N
  GI50: 18.5 µM (inactive)
UACC-257
  GI50: 16.6 µM (inactive)
MCF7
  GI50: 19.8 µM (inactive)
T47D
  GI50: 22.6 µM (inactive)
SF-539
  GI50: 27.9 µM (inactive)
MDA-MB-231
  GI50: 13.9 µM (inactive)
HOP-92
  GI50: 31.8 µM (inactive)
HCT-15
  GI50: 19.7 µM
EKVX
  GI50: 21.3 µM (inactive)
PC-3
  GI50: 17.3 µM (inactive)
SW-620
  GI50: 16 µM (inactive)
HOP-62
  GI50: 20 µM (inactive)
ACHN
  GI50: 24.9 µM (inactive)
786-0
  GI50: 14.7 µM (inactive)
SR
  GI50: 36.7 µM (inactive)
M14
  GI50: 13.6 µM (inactive)
SNB-19
  GI50: 32.3 µM (inactive)
NCI-H460
  GI50: 14.4 µM (inactive)
SNB-75
  GI50: 24.8 µM (inactive)
UO-31
  GI50: 30.2 µM (inactive)
Malme-3M
  GI50: 13.2 µM (inactive)
TK-10
  GI50: 25.4 µM (inactive)
BT-549
  GI50: 20.4 µM (inactive)
NCI-H522
  GI50: 13.9 µM (inactive)
